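1) Cells in 96-well plates. 2) Compound, 48 h, 5 concentrations. 3) Linear interpolation between surrounding doses. 4) Unreached endpoint = highest concentration. GI50: concentration for 50% inhibition of growth.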 Calls of active or inactive are those of the source. Rule as the data show it: active = GI50 up to about 1.1 µM and inactive = higher.
Legend:
Test in all cases: growth of human tumour cells (NCI), 48 h
NCI-H226 = system: NCI-H226
NCI-H460 = system: NCI-H460
PC-3 = system: PC-3
UACC-257 = system: UACC-257
CCRF-CEM = system: CCRF-CEM
MCF7 = system: MCF7
BT-549 = system: BT-549
RPMI-8226 = system: RPMI-8226
SNB-19 = system: SNB-19
SW-620 = system: SW-620
SF-539 = system: SF-539
UO-31 = system: UO-31
HCT-15 = system: HCT-15
A498 = system: A498
OVCAR-5 = system: OVCAR-5
SF-295 = system: SF-295
HCT-116 = system: HCT-116
RXF 393 = system: RXF 393
HL-60 = system: HL-60
COLO 205 = system: COLO 205
HOP-92 = system: HOP-92
NCI/ADR-RES = system: NCI/ADR-RES
MOLT-4 = system: MOLT-4
LOX IMVI = system: LOX IMVI
SK-MEL-5 = system: SK-MEL-5
DU-145 = system: DU-145
SF-268 = system: SF-268
SR = system: SR
HOP-62 = system: HOP-62
MDA-N = system: MDA-N
ACHN = system: ACHN
SK-OV-3 = system: SK-OV-3
A549 = system: A549
EKVX = system: EKVX
UACC-62 = system: UACC-62
K562 = system: K562
T47D = system: T47D
OVCAR-3 = system: OVCAR-3
HT-29 = system: HT-29
SK-MEL-28 = system: SK-MEL-28
HCC 2998 = system: HCC 2998
M14 = system: M14
Malme-3M = system: Malme-3M
SNB-75 = system: SNB-75
SK-MEL-2 = system: SK-MEL-2
IGROV-1 = system: IGROV-1
U-251 = system: U-251
NCI-H23 = system: NCI-H23
SN12C = system: SN12C
Hs-578T = system: Hs-578T
NCI-H522 = system: NCI-H522
OVCAR-8 = system: OVCAR-8
TK-10 = system: TK-10
MDA-MB-435 = system: MDA-MB-435
786-0 = system: 786-0
CAKI-1 = system: CAKI-1
KM12 = system: KM12
OVCAR-4 = system: OVCAR-4
MDA-MB-231 = system: MDA-MB-231

`Cc1ccc(/C=C2\CN(C)CC3C2=NC(=S)NC3c2ccc(C)cc2)cc1` (stereo unspecified) was tested, and the GI50 (NCI-H226) was > 100 µM (inactive), the GI50 (NCI-H460) was 41.8 µM (inactive) and the GI50 (PC-3) was 11 µM (inactive). The GI50 (UACC-257) was 62.4 µM (inactive), the GI50 (CCRF-CEM) was 13.8 µM (inactive) and the GI50 (MCF7) was 40.6 µM (inactive). The GI50 (BT-549) was > 72.4 µM (inactive), the GI50 (RPMI-8226) was 46.5 µM (inactive) and the GI50 (SNB-19) was > 61.9 µM (inactive). The GI50 (SW-620) was > 88.7 µM (inactive), the GI50 (SF-539) was > 100 µM (inactive) and the GI50 (UO-31) was 43.2 µM (inactive). The GI50 (HCT-15) was 36 µM, the GI50 (A498) was > 86.7 µM (inactive) and the GI50 (OVCAR-5) was > 100 µM (inactive). For the same compound, the GI50 (SF-295) was 61.8 µM (inactive), the GI50 (HCT-116) was 37.3 µM (inactive) and the GI50 (RXF 393) was 30.3 µM (inactive). The GI50 (HL-60) was 31.3 µM (inactive), the GI50 (COLO 205) was 22.7 µM (inactive) and the GI50 (HOP-92) was 1.69 µM (inactive). The GI50 (NCI/ADR-RES) was 30.8 µM (inactive), the GI50 (MOLT-4) was 14.6 µM (inactive) and the GI50 (LOX IMVI) was 34.7 µM (inactive). For the same compound, the GI50 (SK-MEL-5) was 38.5 µM (inactive), the GI50 (DU-145) was > 85.7 µM (inactive) and the GI50 (SF-268) was > 74.3 µM (inactive). For the same compound, the GI50 (SR) was 29.9 µM (inactive), the GI50 (HOP-62) was > 100 µM (inactive) and the GI50 (MDA-N) was 22 µM (inactive). The GI50 (ACHN) was > 100 µM (inactive), the GI50 (SK-OV-3) was > 100 µM (inactive) and the GI50 (A549) was 35.3 µM (inactive). For the same compound, the GI50 (EKVX) was 9.93 µM (inactive), the GI50 (UACC-62) was > 100 µM (inactive) and the GI50 (K562) was 38.7 µM (inactive). For the same compound, the GI50 (T47D) was 26 µM (inactive), the GI50 (OVCAR-3) was 38.6 µM (inactive) and the GI50 (HT-29) was 27.2 µM (inactive). The GI50 (SK-MEL-28) was > 100 µM (inactive), the GI50 (HCC 2998) was 16.1 µM (inactive) and the GI50 (M14) was 42.5 µM (inactive). The GI50 (Malme-3M) was 92.7 µM (inactive), the GI50 (SNB-75) was 60.8 µM (inactive) and the GI50 (SK-MEL-2) was > 30.7 µM (inactive). The GI50 (IGROV-1) was 13.7 µM (inactive), the GI50 (U-251) was 20.5 µM (inactive) and the GI50 (NCI-H23) was > 74 µM (inactive). The GI50 (SN12C) was 52.1 µM (inactive), the GI50 (Hs-578T) was > 100 µM (inactive) and the GI50 (NCI-H522) was 24 µM (inactive). For the same compound, the GI50 (OVCAR-8) was 53.1 µM (inactive), the GI50 (TK-10) was > 76.4 µM (inactive) and the GI50 (MDA-MB-435) was 16.7 µM (inactive). The GI50 (786-0) was 86.3 µM (inactive), the GI50 (CAKI-1) was > 77.1 µM (inactive) and the GI50 (KM12) was 32.1 µM (inactive). The GI50 (OVCAR-4) was 26.9 µM (inactive) and the GI50 (MDA-MB-231) was > 68.7 µM (inactive).
In the case of `CCC[N+](C)(C)CCCNC(=O)c1c(O)c2ccccc2[nH]c1=O`, the GI50 (NCI-H226) was 77.1 µM (inactive), the GI50 (NCI-H460) was > 100 µM (inactive) and the GI50 (PC-3) was > 100 µM (inactive). The GI50 (UACC-257) was > 100 µM (inactive), the GI50 (CCRF-CEM) was > 100 µM (inactive) and the GI50 (MCF7) was > 100 µM (inactive). For the same compound, the GI50 (BT-549) was 89.1 µM (inactive), the GI50 (RPMI-8226) was > 100 µM (inactive) and the GI50 (SW-620) was > 100 µM (inactive). For the same compound, the GI50 (SF-539) was > 100 µM (inactive), the GI50 (UO-31) was 53.1 µM (inactive) and the GI50 (HCT-15) was over 100 µM. The GI50 (A498) was > 100 µM (inactive), the GI50 (OVCAR-5) was > 100 µM (inactive) and the GI50 (SF-295) was > 100 µM (inactive). The GI50 (HCT-116) was > 100 µM (inactive), the GI50 (RXF 393) was > 100 µM (inactive) and the GI50 (HL-60) was > 100 µM (inactive). The GI50 (COLO 205) was > 100 µM (inactive), the GI50 (HOP-92) was > 100 µM (inactive) and the GI50 (NCI/ADR-RES) was > 100 µM (inactive). For the same compound, the GI50 (MOLT-4) was > 100 µM (inactive), the GI50 (LOX IMVI) was > 100 µM (inactive) and the GI50 (SK-MEL-5) was 15.9 µM (inactive). The GI50 (DU-145) was > 100 µM (inactive), the GI50 (SF-268) was > 100 µM (inactive) and the GI50 (SR) was > 100 µM (inactive). The GI50 (HOP-62) was > 100 µM (inactive), the GI50 (MDA-N) was > 100 µM (inactive) and the GI50 (ACHN) was > 100 µM (inactive). For the same compound, the GI50 (SK-OV-3) was > 100 µM (inactive), the GI50 (A549) was 46.3 µM (inactive) and the GI50 (EKVX) was > 100 µM (inactive). The GI50 (UACC-62) was > 100 µM (inactive), the GI50 (K562) was > 100 µM (inactive) and the GI50 (T47D) was > 100 µM (inactive). The GI50 (OVCAR-3) was > 100 µM (inactive), the GI50 (HT-29) was > 100 µM (inactive) and the GI50 (SK-MEL-28) was > 100 µM (inactive). For the same compound, the GI50 (HCC 2998) was > 100 µM (inactive), the GI50 (Malme-3M) was 24.3 µM (inactive) and the GI50 (SNB-75) was > 100 µM (inactive). The GI50 (SK-MEL-2) was > 100 µM (inactive), the GI50 (IGROV-1) was 89.1 µM (inactive) and the GI50 (U-251) was > 100 µM (inactive). For the same compound, the GI50 (NCI-H23) was > 100 µM (inactive), the GI50 (SN12C) was > 100 µM (inactive) and the GI50 (Hs-578T) was > 100 µM (inactive). The GI50 (NCI-H522) was > 100 µM (inactive), the GI50 (OVCAR-8) was > 100 µM (inactive) and the GI50 (TK-10) was > 100 µM (inactive). The GI50 (MDA-MB-435) was > 100 µM (inactive), the GI50 (786-0) was > 100 µM (inactive) and the GI50 (CAKI-1) was > 100 µM (inactive). For the same compound, the GI50 (KM12) was > 100 µM (inactive), the GI50 (OVCAR-4) was > 100 µM (inactive) and the GI50 (MDA-MB-231) was > 100 µM (inactive).

Source: ChEMBL document CHEMBL1201862, “PubChem BioAssay data set” (2004)
